Results: patent US11738099B2, “Molecular probes and methods of use” (CASE WESTERN RESERVE UNIVERSITY, priority 2014, dated 2023)
“Also recorded” adds a separate entry of the source. Bridges are numbered along the chain shown (N, C = ends). Where no end group is shown, it is not given here.

How the values were obtained:
[1] = Relaxivity at 1.5T in water, 37° C.; type: physicochemical
Protocol: Relaxivity is an important parameter for an MR contrast agent. It reflects how the relaxation rate of the surrounding water proton changes as a function of concentration, and it is directly associated with the agent's contrast enhancing capability during imaging. The relaxivity of the 4 contrast agents was tested at 37° C. in water and compared to Gd(HP-DO3A), Gd-DOTA and ZD2-Gd(HP-DO3A) (FIG. 26). […] Compared to Gd(HP-DO3A), Gd-DOTA, the size increase of the targeted contrast agents due to the peptides and PEG spacer could result in an increase of τR,^[42, 43] thus leading to higher relaxivities.

[2] = In vivo transmetallation and urinary excretion; design: species or system mouse; details: 0.1 mmol-Gd/kg
Protocol: Balb/c mice (Charles River Laboratories, Wilmington, Mass., USA) were randomly divided into groups of ZD2-Gd(HP-DO3A) and ProHance (n=5) and placed in the metabolism cages, 48 hours prior to injection. […] Urine samples were collected at 12 h pre-injection, and then 8, 24, 48, and 72 h post-injection from the metabolic box. The collected urine samples were centrifuged at 4,000 rpm for 15 min. The concentration of Gd(III), Zn(II), Cu(H), and Ca(II) in the supernatant of the urine samples was determined by ICP-OES after appropriate dilutions.

[3] = target: EDB fragment (Homo sapiens, UniProt P02751); test: Peptide ELISA of HRP-conjugated peptides on coated EDB; type: binding; details: HRP conjugates
EDB fragment, sequence (P02751 1271-1359 limits assumed): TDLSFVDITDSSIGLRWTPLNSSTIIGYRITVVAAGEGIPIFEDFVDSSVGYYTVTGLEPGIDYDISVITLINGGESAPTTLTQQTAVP
Protocol: A linear version of ZD2 (CTVRTSADA) SEQ ID NO: 42 was synthesized so that sulfhydryl group on cysteine could be used for conjugation with maleimide-activated […] (Sigma-Aldrich). Conjugation was carried out as instructed in the manual. The product of conjugation, ZD2-HRP, was used for peptide ELISA assay after coating a 96-well plate with purified EDB. 0.5% BSA in PBS was used to block non-specific binding for later steps. 0.39 μM to 50 μM of ZD2-HRP was incubated with coated EDB for an hour followed by extensive washing with TBST (0.1%). ABTS substrate was added subsequently and allowed to react for 30 min before the absorbance of solution in each well were measured at 415 nm. Non-coated wells added with ABTS were used as blank.
Cyclic ZD2 peptide (CTVRTSADC) (SEQ ID NO: 10) was synthesized using standard solid phase peptide chemistry and was characterized by MALDI-TOF mass spectrometry (FIG. 1C). The peptide was then labeled with a fluorescence chromophore cyanine 5 (Cy5) through a short PEG linker (NH2—(CH2CH2O)—CH2CH2COOH) to give a peptide fluorescence probe ZD2-Cy5. The peptide was also conjugated to peroxidase (ZD2-HRP) and the binding affinity of the peptide to EDB fragment was determined using peptide ELISA assay.
Similarly, CERAK-HRP is synthesized as a control.

[4] = test system: TGFβ induced 4T1 cells; test: Binding of Cy5 probes to TGFβ induced 4T1 cells in vitro; type: cell-based; details: cell culture
Protocol: As tumor cells produce EDB-FN to promote its migration, we further validated if Cy5 labeled l-ZD2 (l-ZD2-Cy5) can bind to TGFβ induced 4T1 cells in vitro. […] To explain this, we hypothesize that in this form of cell culture, no clot formation can take action to provide binding sites for CREKA-Cy5. To validate our hypothesis, we further produced a 3D culture system that mimics the “soil” of metastatic tumor. In the 3D culture system, 4T1 cells were cultured in a microenvironment containing TGFβ, collagen, and fibrin. […] In overall, these evidences point to the conclusion that the use of EDB-FN for targeting micrometastasis may be advantageous compared with Fibronectin-Fibrin complexes in that EDB-FN appears earlier than Fibronectin-Fibrin in the pre-metastatic niche.

[5] = test system: LNCaP prostate tumor xenografts; test: In vivo T1-weighted MRI at 7T, LNCaP tumors; design: species or system mouse; details: 0.1 mmol/kg i.v., up to 30 min, 7T
Protocol: (§1) All MRI experiments were performed on a horizontal 7T Bruker scanner (Bruker Biospin Co., Billerica, Mass.). Imaging experiments were performed when the tumor size reached 5-8 mm in diameter. ZD2-Gd(HP-DO3A) was administered intravenously at the dose of 0.1 mmol/kg after acquiring pre-contrast images. Post-contrast images were obtained at 10 min interval up to 30 min. The axial slices of mouse at the tumor location were acquired using T1-weighted spin echo sequence with the following parameters: field of view (FOV): 3 cm; slice thickness: 1.2 mm; interslice distance: 1.2 mm; TR: 500 ms, TE: 8.1 ms; flip angle: 90°; average: 2; matrix size: 128×128. Contrast-to-noise ratio (CNR) at each time point was calculated by subtraction of the average signal intensity in the tumor and muscle, divided by the standard deviation of image noise. ProHance® (gadoteridol) was used as a control in the imaging experiments.

[6] = test system: PC3 prostate tumor xenografts; test: In vivo T1-weighted MRI at 7T, PC3 tumors; design: species or system mouse
Protocol: as §1

[7] = test system: TGFβ1-induced PC3 cancer cells; test: In vitro cellular binding, confocal microscopy; type: cell-based, human
Protocol: PC3 cell line was purchased from American Type Culture Collection (ATCC, Manassas, Va., USA), and maintained in RPMI/10% FBS medium. The cells were transfected with lentivirus to express green fluorescent protein (GFP) at least 48 h prior to harvesting. To induce EMT, PC3 cells were cultured in the presence of TGFβ1 (5 ng/ml) for 5 days. For in vitro binding assay, nuclei of cells were stained with Hoechst 33342 (Life Technologies, Brooklyn, N.Y., USA) 24 h prior to adding 500 nM ZD2-Cy5. Cells were maintained in medium containing ZD2-Cy5 for 24 h and monitored with confocal microscopy. Intense shaking was avoided for live-cell binding study to retain secreted EDB-FN on the glass.

[8] = test system: PC3-GFP flank tumor xenografts
Protocol: NIH athymic male nude mice, age 4-5 weeks, were maintained at the Athymic Animal Core Facility at Case Western Reserve University according to the animal protocols approved by the Institutional Animal Care and Use Committee (IACUC). For whole-body fluorescent imaging study, a flank tumor model was constructed. Each mouse was subcutaneously implanted in both flanks with 2×10^6 PC3-GFP cells mixed with an equal volume of in a mixture of PBS (50 μL culture medium and 50 μL PBS). Two to three weeks after inoculation, tumors reached an average size of 0.5 cm in diameter. The mice were used for imaging with Maestro FLEX In vivo Imaging System (Cambridge Research & Instrumentation, Inc. Woburn, Mass., USA) to monitor the targeting effect of ZD2 from 0 to 24 hours. Mice were intravenously injected with ZD2-Cy5 or CERAK-Cy5 (0.3 μmol/kg body weight). After 5 h, the mice were sacrificed and the tumor and various organs were imaged with the Maestro FLEX In vivo Imaging System.

[9] = test system: human prostate tumor sections; test: Histological staining of human prostate sections
Source text: Human prostate sections were acquired from OriGene (Rockville, Md., USA). Antibodies used in this study include mouse monoclonal anti-Fibronectin antibody (BC-1, ab154210, Abcam, Cambridge, UK), Rhodamine-Red-X conjugated goat polyclonal anti-rabbit IgG (H+L) (Jackson Immuno Research Lab. West Grove, Pa., USA), and FITC conjugated goat polyclonal anti-mouse Fc (ab97264, Abcam). Frozen tissue section ([…]) imbedded in OCT was used for immunostaining and peptide staining. Paraffin embedded samples were de-paraffinized and processed with antigen retrieval using general methods. Sections were permeabilized and fixed with cold acetone followed by 0.5% BSA blocking for 1 hr at room temperature. Peptide staining was carried at the concentration of 5 uM. Slides were counter-stained with DAPI and mounted with coverslip using Prolong Gold regent (Invitrogen) before imaging. Stained tissue was imaged on an Olympus FV1000 confocal laser scanning microscope. GFP was observed using […] and the emission wavelength was read from 480 to 495 nm and represented as green. DAPI was observed using 405 nm laser and the emission wavelength was read from 450 to 470 nm and expressed as blue. Cy5.0 was observed using 635 nm laser and the emission wavelength was read from 655 to 755 nm and expressed as red.

`O=C([O-])CN1CCN(CC(=O)[O-])CCN(CC(=O)O)CCN(CC(=O)[O-])CC1.[Gd+3]` [Gd-DOTA, reference compound] showed a r1 [1] of 2.9 mM⁻¹ s⁻¹.
In the case of `CNC(=O)CN(CCN(CCN(CC(=O)[O-])CC(=O)NC)CC(=O)[O-])CC(=O)[O-].[Gd+3]` [Omniscan, reference compound], the “urine concentration of endogenous metal ions post-injection vs pre-injection” value [2] is reported as “significant increase in Zn(II) concentration”.
With “CERAK-HRP: control peptide CERAK conjugated to HRP (also: conjugated to HRP) [reference compound]” the “binding to EDB protein” value [3] was “no observable binding”.
In the case of “CREKA-Cy5: Cy5 probe of CREKA peptide, targets fibronectin-fibrin complexes (also: Cy5 conjugate) [reference compound]”, the “binding to induced 4T1 cells” value [4] is reported as “no binding”.
In the case of “CREKA-Gd(HP-DO3A): fibrin-FN clot targeting contrast agent, CREKA (Cys-Arg-Glu-Lys-Ala) conjugated to Gd(HP-DO3A) (also: conjugated to Gd(HP-DO3A) (Gd complex)) [reference compound]”, the “signal enhancement in LNCaP tumors” value [5] is reported as “significant contrast enhancement in the periphery”, the “signal enhancement in PC3 tumors” value ([6]; 0.1 mmol/kg i.v., up to 30 min, 7T) is reported as “significant contrast enhancement in the periphery” and the “difference in signal enhancement between the PC3 and LNCaP tumors” value ([6]; mouse, in vivo) is reported as “no significant difference”.
With “GVK-(Gd-DOTA): GVK peptide, PEG spacer, p-NCS-Bz-DOTA-GA, Gd complex (GVKSYNE; also: PEG spacer, p-NCS-Bz-DOTA-GA, Gd complex)” the r1 [1] was 4.3 mM⁻¹ s⁻¹.
Compound “IGK-(Gd-DOTA): IGK peptide, PEG spacer, p-NCS-Bz-DOTA-GA, Gd complex (IGKTNTL; also: PEG spacer, p-NCS-Bz-DOTA-GA, Gd complex)” has a r1 [1] of 4.6 mM⁻¹ s⁻¹.
In the case of “ZD2-(Gd-DOTA): ZD2 peptide, PEG spacer, p-NCS-Bz-DOTA-GA, Gd complex (TVRTSAD; also: PEG spacer, p-NCS-Bz-DOTA-GA, Gd complex; listed as Homo sapiens)”, the r1 [1] is reported as 4.1 mM⁻¹ s⁻¹.
For “ZD2-Cy5: cyclic ZD2 (CTVRTSADC) labeled with Cy5 through a short PEG linker (CTVRTSADC-OH; disulfide 1-9 (inferred); not fully specified (N-terminus))”, the “binding to the periphery of PC3 cells” value ([7]; TGFβ1-induced (post-EMT) PC3 cells, vs untreated cells) was “substantially more binding; also recorded: strong binding”, the “binding to PC3 cells” value ([7]; uninduced cells) was “non-binding” and the “accumulation in tumor, whole-body fluorescence imaging” value ([8]; 1.5 h after intravenous injection) was “significantly high accumulation”. For the same compound, the “tumor accumulation, ex vivo Cy5 signal of tumor and organs” value ([8]; 5 hours after injection) was “specific accumulation”, the “tumor to normal (T/N) ratio of Cy5 signal” value ([8]; maintained for up to 24 hours, compared with CERAK-Cy5) was “Relatively high” and the “accumulation in the liver or lung” value ([8]; mouse, in vivo) was “Little accumulation”. For the same compound, the “staining of normal glands / BPH sections” value ([9]; 5 uM) was “unstained”, the “tumor binding after blocking sections with BC-1” value ([9]; competitive staining) was “inhibited” and the “staining of human prostate tumor sections” value ([9]; high Gleason score (GS7, GS9), 5 uM) was “strong staining; also recorded: strong binding”.
